Measurements reported in patent publication US9616053B2, “Indolin-2-one or pyrrolo-pyridin/pyrimidin-2-one derivatives” (Hoffmann-La Roche Inc., priority 2013, dated 2017).

Tests used:
[1] = test system: L-687,414-induced hyperlocomotion; test: L-687,414-induced hyperlocomotion (Digiscan locomotor activity); format: in vivo, mouse; conditions: Mus musculus; dose ip 30 mg/kg, at the same time as s.c. 50 mg/kg L-687,414; mice
Description: The authors described that hyperlocomotion induced by L-687,414 was inhibited by a series of known antipsychotic drugs. […] These findings predict antipsychotic activity for the present compounds, making them useful for the treatment of positive (psychosis) and negative symptoms of schizophrenia, substance abuse, alcohol and drug addiction, obsessive-compulsive disorders, cognitive impairment, bipolar disorders, mood disorders, major depression, resistant depression, anxiety disorders, Alzheimer's disease, autism, Parkinson's disease, chronic pain, borderline personality disorder, sleep disturbances, chronic fatigue syndrome, stiffness, antiinflammatory effects in arthritis and balance problems.
The described compounds of formula I reduce L-687,414-induced hyperlocomotion. This was assessed by using a computerized Digiscan 16 Animal Activity Monitoring System (Omnitech Electronics, Columbus, Ohio) to quantify locomotor activity. Animals were kept under a 12 h light/dark cycle and experiments were performed during the light period. Each activity monitoring chamber consisted of a Plexiglas box (41×41×28 cm; W×L×H) with sawdust bedding on the floor surrounded by invisible horizontal and vertical infrared sensor beams. The test boxes were divided by a Plexiglas cross providing each mouse with 20×20 cm of moving space. Cages were connected to a Digiscan Analyzer linked to a computer that constantly collected the beam status information. Records of photocell beam interruptions for individual animals were taken every 5 min over the duration of the experimental session and the sum of the first 6 periods was used as the final parameter. Compounds were administered either p.o. 15 min before a s.c. injection of 50 mg/kg of L-687,414, or i.p. at the same time as a s.c. injection of 50 mg/kg of L-687,414. Mice were then transferred from their home cage to the recording chambers for a 15-min habituation phase allowing free exploration of the new environment. Horizontal activity was then recorded for a 30-min time period. The % inhibition of L-687,414-induced hyperlocomotion was calculated according to the equation: ((Veh+L-687,414 horizontal activity−drug+L-687,414 horizontal activity)Veh+L-687,414 horizontal activity)×100
ID50 values, defined as doses of each compound producing 50% inhibition of L-687,414-induced hyperlocomotion, were calculated by linear regression analysis of a dose-response data using an Excel-based computer-fitting program.
As data was not presupposed to be normally distributed, groups treated with test compounds were statistically compared with the control (vehicle-treated) group using one-tailed Mann Whitney U tests. In statistics, the Mann-Whitney Utest (also called the Mann-Whitney-Wilcoxon (MWW) or Wilcoxon rank-sum test) is a non-parametric statistical hypothesis test for assessing whether one of two samples of independent observations tends to have larger values than the other. It is one of the most well-known non-parametric significance tests. […] P values given in table 1 are one-tailed since only decreases in locomotion were expected and tested for (Mann, H. B., Whitney, D. R. (1947), “On a Test of Whether one of Two Random Variables is Stochastically Larger than the Other”, Annals of Mathematical Statistics, 18 (1), 50-60).

[2] = test system: behaviors of compound-treated mice; test: SmartCube behavioral signature and similarity analysis; format: in vivo; design: key to discrimination rate vs Clozapine / discrimination rate vs Olanzapine / discrimination rate vs Risperidone: discrimination rate as fraction; 0.5 = zero distinguishability; conditions: 25 mg/kg i.p.; for SmartCube behavioral signature: compared with reference drug classes; for discrimination rate vs Clozapine / discrimination rate vs Olanzapine / discrimination rate vs Risperidone: rate of 0.70 or lower = similar
Description: In addition to the reversal of L-687,414 induced hyperlocomotion experiment as described above, some compounds of the present invention have been tested in SmartCube®, an automated system in which the behaviors of compound-treated mice in response to multiple challenges are captured by digital video and analyzed with computer algorithms (Roberds et al., Frontiers in Neuroscience, 2011, Vol. 5, Art. 103, 1-4). In this way, the neuro-pharmacological effects of a test compound can be predicted by similarity to major classes of compounds, such as antipsychotics, anxiolytics and antidepressants.
As mentioned above, some compounds have been tested in SmartCube®, an analytical system developed by PsychoGenics Inc.
SmartCube® was used to compare the behavioral signature of a test compound to a database of behavioral signatures obtained from a large set of clinically approved reference drugs, grouped per indications. In this way, the neuro-pharmacological effects of a test compound can be predicted by similarity to major classes of compounds, such as antipsychotics, anxiolytics and antidepressants. This approach is ideally suited to screen collections of existing drugs or drug candidates with previously unknown neuropharmacology, which could expedite the development of new and unexpected treatments for psychiatric disorders.
Some compounds of the present invention were injected i.p. at different doses 15 minutes before the test. At least 8 mice were used in each treatment group. Digital videos of the subjects were processed with computer vision algorithms to extract over 2000 dependent measures including frequency and duration of many different behavioral states. The results of the classifications are presented as bar charts for each compound and dose (mg/kg), the Y-axis indicates the relative probability that the test compound will show efficacy in the specific CNS indication.
Compounds of the present invention show similar signatures to those of atypical antipsychotics. An independent analysis was performed on the unclassified data to determine the similarity of the example compounds to active doses of known atypical antipsychotics. For this analysis, we use discrimination rate as the measure of separability between the two drugs, i.e. one drug's “distinguishability” from another. A rate equal to 50% (or 0.5) corresponds to zero distinguishability. […] In most cases, the example compounds show a similarity to risperidone, clozapine and olanzapine with a discrimination rate of ≦0.70.

Compound	inhibition at 30 mg/kg [1] [%]	SmartCube behavioral signature [2]	discrimination rate vs Clozapine [2]	discrimination rate vs Olanzapine [2]	discrimination rate vs Risperidone [2]
Cc1ncc(-c2ccc3c(c2)N(C)C(=O)C3(C)C)o1 [Example 71, 1,3,3-Trimethyl-6-(2-methyloxazol-5-yl)indolin-2-one]	68.5	similarity to atypical antipsychotics	0.79	0.66	0.63
Cc1ncc(-c2ccc3c(c2)N(CCCS(=O)(=O)C2CC2)C(=O)C3(C)C)cn1 [Example 54, 1-(3-(Cyclopropylsulfonyl)propyl)-3,3-dimethyl-6-(2-methylpyrimidin-5-yl)indolin-2-one]	–	similarity to atypical antipsychotics	0.69	0.61	0.63
CN1C(=O)C(C)(C)c2ccc(-c3cccnn3)cc21 [Example 13, 1,3,3-Trimethyl-6-(pyridazin-3-yl)indolin-2-one]	76.9	similarity to atypical antipsychotics	0.69	0.70	0.72
CC1(C)C(=O)Nc2cc(-n3ccnc3)ccc21 [Example 58, 6-Imidazol-1-yl-3,3-dimethyl-1,3-dihydro-indol-2-one]	–	similarity to atypical antipsychotics	0.63	0.69	0.66
